Measured values published in patent US20160332972A1, “UREA HYDANTOIN DERIVATIVES AS FORMYL PEPTIDE MODULATORS” (ALLERGAN, INC., priority 2014, published 2016).
pEC50: −log10 of the molar value.

Target: T1, FPR2 (Homo sapiens, UniProt P25090)
T1 construct: expressed in transfected cells
T1 sequence (P25090 1-351): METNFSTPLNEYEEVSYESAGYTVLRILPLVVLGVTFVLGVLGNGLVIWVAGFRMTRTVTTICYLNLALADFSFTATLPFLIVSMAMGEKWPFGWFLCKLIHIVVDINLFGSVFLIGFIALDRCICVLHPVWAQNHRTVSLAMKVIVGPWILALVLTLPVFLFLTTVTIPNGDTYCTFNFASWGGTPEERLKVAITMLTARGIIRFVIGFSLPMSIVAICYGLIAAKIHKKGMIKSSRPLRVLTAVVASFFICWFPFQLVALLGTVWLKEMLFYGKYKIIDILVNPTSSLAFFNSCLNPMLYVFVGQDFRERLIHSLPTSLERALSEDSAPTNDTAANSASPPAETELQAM
Assay: FLIPR Tetra calcium activity assay in CHO-Gα16 cells stably expressing FPR2
Format: cell-based
Experimental: CHO-Gα16 cells stably expressing FPR2 were cultured in F12 media (10% FBS, 1% PSA, 400 μg/ml geneticin and 50 μg/ml hygromycin). In general, the day before the experiment, 18,000 cells/well were plated in a 384-well clear bottom poly-D-lysine coated plate. The following day the screening compound-induced calcium activity was assayed on a FLIPR^Tetra. The drug plates were prepared in 384-well microplates using EP3 and MultiPROBE robotic liquid handling systems. Compounds were tested at concentrations ranging from 0.61 to 10,000 nM. Results are expressed as EC50 (nM) and % efficacy values.

FPR2 Gα16-CHO (% eff) (% efficacy, calcium activity): (0.97) %
pEC50 (compound-induced calcium activity, tested at 0.61 to 10,000 nM): 7.31
SMILES: CCOC(=O)CCNCCC1(CC)NC(=O)N(NC(=O)Nc2ccc(Br)cc2)C1=O (centres unmarked) [Compound 1, Ethyl 3-{[2-(1-{[(4-Bromophenyl)carbamoyl]amino}-4-ethyl-2,5-dioxoimidazolidin-4-yl)ethyl]amino}propanoate]
